Results on 2 molecules are retold here after article PMC9475448, “What a difference a methylene makes: replacing Glu with Asp or Aad in the Lys-urea-Glu pharmacophore of PSMA-targeting radioligands to reduce kidney and salivary gland uptake” (Theranostics, 2022).

Molecules are shown by their SMILES.

The target of one data set is T1, PSMA (Homo sapiens, UniProt Q04609).
T1 construct: endogenous in cells; host or cells: LNCaP prostate cancer cells
The data set can be described thus: In vitro competition binding assay using LNCaP cells and [18F]DCFPyL as radioligand. The settings on record: displacement of [18F]DCFPyL from LNCaP cells, n = 3; read-out: PSMA binding affinity (Ki). The method, then: The binding assays were conducted following previously published procedures using LNCaP cells and [^18F]DCFPyL as the radioligand [17]-[19]. Briefly, LNCaP cells (400,000/well) were plated onto a 24-well poly-D-lysine coated plate for 48 h. Growth media was removed and replaced with HEPES buffered saline (50 mM HEPES, pH 7.5, 0.9% sodium chloride) and the cells were incubated for 1 h at 37 °C. [^18F]DCFPyL (0.1 nM) was added to each well (in triplicate) containing various concentrations (0.5 mM - 0.05 nM) of tested nonradioactive Ga-complexed compounds. Non-specific binding was determined in the presence of 10 µM non-radiolabeled DCFPyL. The assay mixtures were further incubated for 1 h at 37 °C with gentle agitation. Then, the buffer and radioligand were removed, and cells were washed twice with cold HEPES buffered saline. To harvest the cells, 400 µL of 0.25 % trypsin solution was added to each well. Radioactivity was measured on a PerkinElmer (Waltham, MA) Wizard2 2480 automatic gamma counter. Data analyses of Ki were performed using the nonlinear regression algorithm of GraphPad (San Diego, CA) Prism 7 software.
In general terms: In a radioligand displacement assay an active substance lowers the binding of a labelled ligand.

In a further data set the test system is LNCaP tumor-bearing mice. Briefly: Ex vivo biodistribution of 68Ga-labeled ligands in LNCaP tumor-bearing NSG mice. The settings on record: 1 h post-injection.

T1 sequence (Q04609 whole entry): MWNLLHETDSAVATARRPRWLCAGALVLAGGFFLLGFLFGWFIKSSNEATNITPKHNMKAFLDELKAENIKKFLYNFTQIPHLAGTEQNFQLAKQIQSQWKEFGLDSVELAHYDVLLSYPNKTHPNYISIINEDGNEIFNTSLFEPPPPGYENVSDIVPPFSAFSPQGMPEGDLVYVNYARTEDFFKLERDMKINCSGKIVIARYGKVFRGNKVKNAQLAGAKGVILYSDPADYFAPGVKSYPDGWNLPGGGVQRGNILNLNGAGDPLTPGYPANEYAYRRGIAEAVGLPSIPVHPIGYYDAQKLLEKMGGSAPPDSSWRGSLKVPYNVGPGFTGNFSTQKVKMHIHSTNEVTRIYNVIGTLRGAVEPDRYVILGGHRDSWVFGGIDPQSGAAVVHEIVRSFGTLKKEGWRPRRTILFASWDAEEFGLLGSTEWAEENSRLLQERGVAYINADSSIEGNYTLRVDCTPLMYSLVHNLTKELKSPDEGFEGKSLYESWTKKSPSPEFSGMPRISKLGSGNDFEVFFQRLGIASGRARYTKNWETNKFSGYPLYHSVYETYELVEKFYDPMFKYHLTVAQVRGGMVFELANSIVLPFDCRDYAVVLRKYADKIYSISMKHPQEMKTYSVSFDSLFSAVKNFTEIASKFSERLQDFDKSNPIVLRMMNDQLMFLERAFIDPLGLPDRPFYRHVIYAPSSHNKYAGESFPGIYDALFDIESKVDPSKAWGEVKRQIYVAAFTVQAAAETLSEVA

As usually defined, the Ki is a dissociation constant, usually derived from enzyme kinetics or from competition with a known ligand. Turning to `O=C([O-])CN1CCN(CC(=O)[O-])CCN(CC(=O)NCC2CCC(C(=O)NC(Cc3c4ccccc4cc4ccccc34)C(=O)NCCCCC(NC(=O)NC(CCCC(=O)O)C(=O)O)C(=O)O)CC2)CCN(CC(=O)[O-])CC1.[Ga+3]` (stereo not drawn) [Ga-HTK03149], the Ki on PSMA came out at 6.99 ± 0.8 nM.
For `O=C([O-])CN1CCN(CC(=O)[O-])CCN(CC(=O)NCC2CCC(C(=O)NC(Cc3c4ccccc4cc4ccccc34)C(=O)NCCCCC(NC(=O)NC(CCCCC(=O)O)C(=O)O)C(=O)O)CC2)CCN(CC(=O)[O-])CC1.[68Ga+3]` (single isomer, unassigned) [[^68Ga]Ga-HTK03189A], the “Higher tumor uptake than [68Ga]Ga-HTK03189B” value with LNCaP tumor-bearing mice is ~ 2 fold. Moreover, in the data set on LNCaP tumor-bearing mice (listed as [68Ga]Ga-HTK03189A), the Adrenal glands uptake stood at 0.35 ± 0.06 %IA/g, the Blood uptake is 0.89 ± 0.22 %IA/g, the “Blood:Salivary gland uptake ratio” value is 4.39 ± 0.44 and the Bone uptake is listed as 0.12 ± 0.03 %IA/g. In the data set on LNCaP tumor-bearing mice (listed as [68Ga]Ga-HTK03189A), the Brain uptake is on record as 0.02 ± 0.00 %IA/g, the Fat uptake came out at 0.18 ± 0.11 %IA/g, the Heart uptake was determined as 0.24 ± 0.06 %IA/g and the Intestines uptake is listed as 0.31 ± 0.18 %IA/g. Further, in the data set with LNCaP tumor-bearing mice (listed as [68Ga]Ga-HTK03189A), the Kidneys uptake came to 2.65 ± 0.69 %IA/g, the Lacrimal glands uptake was determined as 0.18 ± 0.18 %IA/g, the Liver uptake is on record as 0.34 ± 0.15 %IA/g and the Lungs uptake worked out at 0.68 ± 0.12 %IA/g. In the data set on LNCaP tumor-bearing mice (listed as [68Ga]Ga-HTK03189A), this molecule registered a Muscle uptake of 0.14 ± 0.04 %IA/g, a Pancreas uptake of 0.15 ± 0.04 %IA/g, a Salivary glands uptake of 0.20 ± 0.04 %IA/g and a Spleen uptake of 0.21 ± 0.10 %IA/g. Also, in the data set on LNCaP tumor-bearing mice (listed as [68Ga]Ga-HTK03189A), the Stomach uptake was determined as 0.11 ± 0.06 %IA/g, the Testes uptake amounted to 0.23 ± 0.11 %IA/g, the Thyroid uptake was 0.25 ± 0.05 %IA/g and the Tumor uptake amounted to 2.10 ± 0.28 %IA/g. Besides, in the data set with LNCaP tumor-bearing mice (listed as [68Ga]Ga-HTK03189A), the “Tumor:Blood uptake ratio” value stood at 2.41 ± 0.29, the “Tumor:Kidney uptake ratio” value was 0.83 ± 0.21, the “Tumor:Muscle uptake ratio” value stood at 16.5 ± 4.08 and the “Tumor:Salivary gland uptake ratio” value is reported as 10.5 ± 1.07. In the data set with LNCaP tumor-bearing mice (listed as [^68Ga]Ga-HTK0189A), the Tumor uptake was 2.10±0.28 %IA/g.
